This is an account of results in patent US20240368120A1 (Terns Pharmaceuticals, Inc., priority 2023, published 2024).

Each structure is given as a SMILES string.

One data set has as its target T1, human GLP-1R receptor (Homo sapiens, UniProt P43220).
T1 construct: expressed in transfected cells
The data set can be described thus: GLP-1R low expression cell assay (cAMP TR-FRET, CHO-K1_hGLP-1Rlow_clone10 cells). It is filed as cell-based. The settings on record: for EC50: cAMP TR-FRET, 30 min at 25° C.; for Emax: maximum activation relative to control GLP-1 peptide agonist. In outline: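 Readout is cAMP TR-FRET after 30 min compound stimulation at 25 °C of a low-GLP-1R-expressing CHO-K1 clone (1,000 cells/well), with 10-point 3-fold serial dilutions. Percent activation versus a control GLP-1 peptide, from duplicates, was Hill-fitted to give EC50.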
Background: Time-resolved FRET reads energy transfer from a long-lived donor to a nearby acceptor.

A short description of data set [1]: Rat pharmacokinetics, oral dosing. Particulars: male, Sprague-Dawley, oral dosing at 3 mg/kg, plasma; for half-life: read-out: Rat T1/2. It is filed as in vivo, Sprague-Dawley rats. How it is done:
Intravenous dosing: Compounds were formulated at 1.0 mg/mL in a solution comprising 5% polyethylene glycol 400 and 95% (12% (w/v) sulfobutyl-β-cyclodextrin in water) (v/v). Formulated compounds were sterile filtered through a 0.22 micron filter before dosing. Compounds were administered to male, 7-11-week-old Sprague-Dawley rats by jugular vein cannula infusion over 30 minutes at a dose of 1 mg/kg. Oral dosing: Compounds were formulated at 1.0 mg/mL in a solution comprising 5% polyethylene glycol 400 and 95% (12% (w/v) sulfobutyl-β-cyclodextrin in water) (v/v). Formulated compounds were administered to male, 7-11 week old Sprague-Dawley rats by oral gavage at a dose of 10 mg/kg or 3 mg/kg.
Sample collection: Blood collections of about 0.2 mL per time point were performed from jugular vein or other suitable site of each animal, into pre-chilled commercial EDTA-K2 tubes and placed on wet ice until centrifugation. Blood samples were processed for plasma by centrifugation at approximately 4° C., 3,200 g for 10 min. Plasma was collected and transferred into pre-labeled 96 well plate or polypropylene tubes, quick frozen over dry ice and kept at −60° C. or lower until
Data analysis: Plasma concentration versus time data was plotted in graph and analyzed by non-compartmental approaches using the Phoenix WinNonlin 6.3 software program. Related PK parameters were calculated according to dosing route, e.g., CL, Vdss and C0 for intravenous administration, Cmax, Tmax or % F for extravascular administration, and T1/2, AUC(0-t), AUC(0-inf), MRT(0-t), MRT(0-inf) for all routes.

T1 sequence (P43220 24-463): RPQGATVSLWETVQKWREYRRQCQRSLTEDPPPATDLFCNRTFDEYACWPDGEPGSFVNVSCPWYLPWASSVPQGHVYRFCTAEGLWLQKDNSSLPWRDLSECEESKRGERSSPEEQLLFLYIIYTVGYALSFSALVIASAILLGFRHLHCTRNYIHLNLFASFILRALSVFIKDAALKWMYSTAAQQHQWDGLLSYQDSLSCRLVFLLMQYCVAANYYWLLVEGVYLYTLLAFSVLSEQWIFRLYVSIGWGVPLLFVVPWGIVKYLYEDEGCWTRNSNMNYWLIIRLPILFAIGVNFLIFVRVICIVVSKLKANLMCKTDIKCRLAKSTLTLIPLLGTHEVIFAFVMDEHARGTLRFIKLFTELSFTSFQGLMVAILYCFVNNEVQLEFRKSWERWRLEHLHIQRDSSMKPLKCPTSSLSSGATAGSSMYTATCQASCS

As for `Cn1c(CN2CCC(c3cccc4c3O[C@@](C)(c3ccc(Cl)cn3)O4)CC2)nc2c(OC(F)F)cc(C(=O)O)cc21` [Compound 83, (S)-2-((4-(2-(5-Chloropyridin-2-yl)-2-methylbenzo[d][1,3]dioxol-4-yl)piperidin-1-yl)methyl)-4-(difluoromethoxy)-1-methyl-1H-benzo[d]imidazole-6-carboxylic acid], at human GLP-1R receptor, the EC50 (usually the concentration needed to bring the measured effect to its halfway point) is less than 10 nM and the maximal response (Emax) (commonly the greatest response seen or fitted, relative to the assay's reference) was greater than 85%. For the same compound, in data set [1], the AUC (commonly concentration integrated over time) was in the range of 2500 to 10000 ng·h/mL; the maximum concentration (Cmax) (usually the peak of the concentration-time curve) was in the range of 2000 to 5000 ng/mL; the half-life was no less than 2.5 h; the bioavailability (in general, the share of a dose that reaches the circulation, judged against a reference dose that is usually intravenous) was greater than 85%.

On human GLP-1R receptor, `COc1cc(C(=O)O)cc2c1nc(CN1CCC(c3cccc4c3O[C@@](C)(c3ccc(Cl)cn3)O4)CC1)n2C` [Compound 85, (S)-2-((4-(2-(5-Chloropyridin-2-yl)-2-methylbenzo[d][1,3]dioxol-4-yl)piperidin-1-yl)methyl)-4-methoxy-1-methyl-1H-benzo[d]imidazole-6-carboxylic acid] gave a 50% effective concentration (EC50) of less than 10 nM and an Emax greater than 85%. In data set [1], the area under the curve (AUC) was in the range of 2500 to 10000 ng·h/mL, the maximum concentration (Cmax) lay in the range of 1000 to 2000 ng/mL, the half-life was in the range of 1.5 to 2.5 h and the bioavailability was in the range of 25 to 50%.

On human GLP-1R receptor, `COc1cc(C(=O)O)cc2c1nc(CN1CC[C@@H](c3cccc4c3O[C@@](C)(c3ccc(Cl)cn3)O4)[C@@H]3C[C@@H]31)n2C[C@@H]1CCO1` [Compound 89, 2-(((1S,5R,6S)-5-((S)-2-(5-Chloropyridin-2-yl)-2-methylbenzo[d][1,3]dioxol-4-yl)-2-azabicyclo[4.1.0]heptan-2-yl)methyl)-4-methoxy-1-(((S)-oxetan-2-yl)methyl)-1H-benzo[d]imidazole-6-carboxylic acid] had a 50% effective concentration (EC50) of less than 10 nM and a maximum response (Emax) greater than 85%. Moreover, in data set [1], the exposure (AUC) is less than 500 ng·h/mL, the highest concentration (Cmax) was less than 500 ng/mL, the half-life is 1.5 to 2.5 h and the bioavailability fell in the range of 25 to 50%.

On human GLP-1R receptor, `C[C@]1(c2ccc(Cl)cn2)Oc2cccc(C3CCN(Cc4nc5c(O)cc(C(=O)O)cc5n4Cc4cncs4)CC3)c2O1` [Compound 90, (S)-2-((4-(2-(5-chloropyridin-2-yl)-2-methylbenzo[d][1,3]dioxol-4-yl)piperidin-1-yl)methyl)-4-hydroxy-1-(thiazol-5-ylmethyl)-1H-benzo[d]imidazole-6-carboxylic acid] had an EC50 of less than 10 nM and a maximum response (Emax) greater than 85%. Besides, in data set [1], the exposure (AUC) was less than 500 ng·h/mL, the Cmax is less than 500 ng/mL, the half-life fell in the range of 1.5 to 2.5 h and the bioavailability is less than 25%.

Regarding `Cn1c(CN2CCC(c3cccc(OCc4ccc(C#N)cc4F)c3)CC2)nc2c(OC(F)F)cc(C(=O)O)cc21` [Compound 111, 2-((4-(3-((4-Cyano-2-fluorobenzyl)oxy)phenyl)piperidin-1-yl)methyl)-4-(difluoromethoxy)-1-methyl-1H-benzo[d]imidazole-6-carboxylic acid], at human GLP-1R receptor, the EC50 lay within 100 to 1000 nM and the Emax was greater than 85%. Besides, in data set [1], the peak concentration (Cmax) was greater than 5000 ng/mL, the half-life is 1.5 to 2.5 h and the bioavailability is greater than 85%.

At human GLP-1R receptor, `Cn1c(CN2CCC(c3cccc(OCc4ccc(C#N)cc4F)n3)CC2)nc2c(OCF)cc(C(=O)O)cc21` [Compound 113, 2-((4-(6-((4-Cyano-2-fluorobenzyl)oxy)pyridin-2-yl)piperidin-1-yl)methyl)-4-(fluoromethoxy)-1-methyl-1H-benzo[d]imidazole-6-carboxylic acid] gave an EC50 of less than 10 nM and a maximal effect (Emax) greater than 85%. Also, in data set [1], the AUC fell in the range of 500 to 2500 ng·h/mL, the Cmax fell in the range of 1000 to 2000 ng/mL, the half-life lay in the range of 1.5 to 2.5 h and the bioavailability was in the range of 50 to 85%.

As for `Cn1c(CN2CCC(c3cccc(OCc4ccc(C#N)cc4F)n3)CC2)nc2c(OC(F)F)cc(C(=O)O)cc21` [Compound 127, 2-((4-(6-((4-Cyano-2-fluorobenzyl)oxy)pyridin-2-yl)piperidin-1-yl)methyl)-4-(difluoromethoxy)-1-methyl-1H-benzo[d]imidazole-6-carboxylic acid], at human GLP-1R receptor, the EC50 is less than 10 nM and the Emax was greater than 85%. In addition, in data set [1], the AUC was 2500 to 10000 ng·h/mL, the highest concentration (Cmax) was 2000 to 5000 ng/mL, the half-life was less than 1.5 h and the bioavailability was 50 to 85%.

For `Cn1c(N(C)[C@H]2CC[C@H](c3cccc(OCc4ccc(C#N)cc4F)n3)CC2)nc2c(OC(F)F)cc(C(=O)O)cc21` [Compound 133, 2-(((1r,4r)-4-(6-((4-Cyano-2-fluorobenzyl)oxy)pyridin-2-yl)cyclohexyl)(methyl)amino)-4-(difluoromethoxy)-1-methyl-1H-benzo[d]imidazole-6-carboxylic acid], at human GLP-1R receptor, the EC50 was less than 10 nM and the Emax is greater than 85%. In addition, in data set [1], the exposure (AUC) was in the range of 500 to 2500 ng·h/mL, the Cmax lay within 500 to 1000 ng/mL, the half-life lay within 1.5 to 2.5 h and the bioavailability lay in the range of 25 to 50%.

At human GLP-1R receptor, `Cn1c(CN2CCC(c3cccc(OCc4ccc(Cl)cc4F)n3)CC2)nc2c(OC(F)F)cc(C(=O)O)cc21` [Compound 136, 2-((4-(6-((4-Chloro-2-fluorobenzyl)oxy)pyridin-2-yl)piperidin-1-yl)methyl)-4-(difluoromethoxy)-1-methyl-1H-benzo[d]imidazole-6-carboxylic acid] came in with a concentration giving a half-maximal response (EC50) of less than 10 nM and an Emax greater than 85%. Moreover, in data set [1], the Cmax is greater than 5000 ng/mL, the half-life is no less than 2.5 h and the bioavailability was greater than 85%.

For the compound `Cn1c(CN2CCC(c3ccc(F)c(OCc4ccc(C#N)cc4F)n3)CC2)nc2c(OC(F)F)cc(C(=O)O)cc21` [Compound 137, 2-((4-(6-((4-Cyano-2-fluorobenzyl)oxy)-5-fluoropyridin-2-yl)piperidin-1-yl)methyl)-4-(difluoromethoxy)-1-methyl-1H-benzo[d]imidazole-6-carboxylic acid], at human GLP-1R receptor, the concentration giving a half-maximal response (EC50) is 10 to 100 nM and the Emax is greater than 85%. In addition, in data set [1], the AUC was in the range of 2500 to 10000 ng·h/mL, the maximum concentration (Cmax) was greater than 5000 ng/mL, the half-life lay in the range of 1.5 to 2.5 h and the bioavailability is greater than 85%.

At human GLP-1R receptor, `COc1cc(C(F)(F)F)ccc1COc1cccc(C2CCN(Cc3nc4c(OC(F)F)cc(C(=O)O)cc4n3C)CC2)n1` [Compound 154, 4-(Difluoromethoxy)-2-((4-(6-((2-methoxy-4-(trifluoromethyl)benzyl)oxy)pyridin-2-yl)piperidin-1-yl)methyl)-1-methyl-1H-benzo[d]imidazole-6-carboxylic acid] returned an EC50 of less than 10 nM and an Emax greater than 85%. Besides, in data set [1], the Cmax was greater than 5000 ng/mL, the half-life was 1.5 to 2.5 h and the bioavailability lay within 50 to 85%.

`COc1cc(C#N)ccc1COc1cccc(C2CCN(Cc3nc4c(OC(F)F)cc(C(=O)O)cc4n3C)CC2)n1` [Compound 156, 2-((4-(6-((4-Cyano-2-methoxybenzyl)oxy)pyridin-2-yl)piperidin-1-yl)methyl)-4-(difluoromethoxy)-1-methyl-1H-benzo[d]imidazole-6-carboxylic acid]: on human GLP-1R receptor, the 50% effective concentration (EC50) was less than 10 nM and the maximum response (Emax) is greater than 85%. In data set [1], the AUC lay within 2500 to 10000 ng·h/mL, the highest concentration (Cmax) was in the range of 2000 to 5000 ng/mL, the half-life is less than 1.5 h and the bioavailability lay in the range of 50 to 85%.

On human GLP-1R receptor, `[2H]C([2H])([2H])Oc1cc(C(=O)O)cc2c1nc(CN1CCC(c3cccc(OCc4ccc(Cl)cc4F)n3)CC1)n2C` [Compound 207, 2-((4-(6-((4-chloro-2-fluorobenzyl)oxy)pyridin-2-yl)piperidin-1-yl)methyl)-4-(methoxy-d3)-1-methyl-1H-benzo[d]imidazole-6-carboxylic acid] returned an EC50 of less than 10 nM and a maximal effect (Emax) greater than 85%. In data set [1], the peak concentration (Cmax) is greater than 5000 ng/mL, the half-life lay within 1.5 to 2.5 h and the bioavailability lay in the range of 50 to 85%.

Take `Cn1c(CN2CCC(c3ccc(F)c(OCc4ccc(Cl)cc4F)c3)CC2)nc2c(OC(F)F)cc(C(=O)O)cc21` [Compound 216, 2-((4-(3-((4-Chloro-2-fluorobenzyl)oxy)-4-fluorophenyl)piperidin-1-yl)methyl)-4-(difluoromethoxy)-1-methyl-1H-benzo[d]imidazole-6-carboxylic acid]: at human GLP-1R receptor, the EC50 lay within 10 to 100 nM and the maximal effect (Emax) is greater than 85%. In data set [1], the highest concentration (Cmax) was greater than 5000 ng/mL, the half-life fell in the range of 1.5 to 2.5 h and the bioavailability lay in the range of 50 to 85%.

At human GLP-1R receptor, `Cn1c(CN2CCC(c3cccc(OCc4ccc(Cl)cc4F)n3)CC2)nc2c(OCF)cc(C(=O)O)cc21` [Compound 225, 2-((4-(6-((4-Chloro-2-fluorobenzyl)oxy)pyridin-2-yl)piperidin-1-yl)methyl)-4-(fluoromethoxy)-1-methyl-1H-benzo[d]imidazole-6-carboxylic acid] came in with an EC50 of less than 10 nM and a maximal effect (Emax) greater than 85%. Besides, in data set [1], the Cmax was in the range of 2000 to 5000 ng/mL, the half-life was no less than 2.5 h and the bioavailability was greater than 85%.
